According to the supplement of paper PMC5579334:

How the values were obtained:
HSC2 [1] = test: relative IC50 (inflection point of fitted dose-response curve, CellTiter-Glo viability, 72 h; top asymptote may be below 50% inhibition); higher = less potent
How it was run: (§1)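 For this screen, 384-well plates were preprinted with each compound at five concentrations in 10-fold steps and seeded with MPNST cell lines or primary human Schwann cells at 750–1000 cells per well. Incubation lasted 72 h at 37 °C, 5% CO2, and CellTiter-Glo ATP luminescence, scaled between vehicle and positive-control wells and averaged over duplicates where available, served as viability. Logistic fits with four parameters were applied. Relative IC50 (censored at the top concentration) and drug sensitivity score derive from these fits, and percent inhibition is at the top concentration.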

HSC1 [2] = test: as above
How it was run: as §1

STS26T [3] = test: as above
How it was run: as §1

S462 = test: as above
How it was run: as §1

HS-Sch-2 = test: as above
How it was run: as §1

HS-PSS [4] = test: as above
How it was run: as §1

ST8814 [5] = test: as above
How it was run: as §1

HSC2 [6] = test: relative IC50 (inflection point of fitted dose-response curve, CellTox-Green cytotoxicity, 72 h; top asymptote may be below 50%); higher = less potent
How it was run: (§2)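 MPNST cell lines and primary human Schwann cells were grown for 72 h at 37 °C in 384-well plates containing five 10-fold compound dilutions. CellTox-Green, added before seeding at a final 1:1000 dilution, gave fluorescence from DNA released by disrupted cells, and signals were scaled to vehicle and positive-control wells. Curves were fitted with a four-parameter logistic model. Drug sensitivity score and relative IC50 come from these fits, with IC50 censored at the top concentration.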

S1507-2 = test: as above
How it was run: as §2

HSC1 [7] = test: as above
How it was run: as §2

STS26T [8] = test: as above
How it was run: as §2

HS-PSS [9] = test: as above
How it was run: as §2

ST8814 [10] = test: as above
How it was run: as §2

YST-1 = test: relative IC50 (inflection point of fitted dose-response curve, CellTiter-Glo viability, 72 h; top asymptote may be below 50% inhibition); higher = less potent
How it was run: as §1

| Structure (SMILES) | relative IC50 (HSC2 [1]) [µM] | relative IC50 (HSC1 [2]) [µM] | relative IC50 (STS26T [3]) [µM] | relative IC50 (S462) [µM] | relative IC50 (HS-Sch-2) [µM] | relative IC50 (HS-PSS [4]) [µM] | relative IC50 (ST8814 [5]) [µM] | relative IC50 (HSC2 [6]) [µM] | relative IC50 (S1507-2) [µM] | relative IC50 (HSC1 [7]) [µM] | relative IC50 (STS26T [8]) [µM] | relative IC50 (HS-PSS [9]) [µM] | relative IC50 (ST8814 [10]) [µM] | relative IC50 (YST-1) [µM] |
| --- | --- | --- | --- | --- | --- | --- | --- | --- | --- | --- | --- | --- | --- | --- |
| O=P1(NCCCl)OCCCN1CCCl (stereo not given) [Ifosfamide] | > 10 | > 10 | > 10 | > 10 | > 10 | > 10 | > 10 | > 10 | > 10 | > 10 | > 10 | > 10 | > 10 |  |
| O=C1CCC(N2C(=O)c3ccccc3C2=O)C(=O)N1 (stereo not given) [Thalidomide] | > 10 | > 10 | > 10 | > 10 |  | > 10 |  | > 10 | > 10 | > 10 |  | > 10 | > 10 | > 10 |
| CCCS(=O)(=O)Nc1ccc(F)c(C(=O)c2c[nH]c3ncc(-c4ccc(Cl)cc4)cc23)c1F [Vemurafenib] | 1.46 | 1.74 | 1.84 | > 10 | 3.92 | 3.73 | > 10 | > 10 | > 10 | > 10 | 1.17 | > 10 |  | > 10 |
| Nc1cccc2c1CN(C1CCC(=O)NC1=O)C2=O (stereo not given) [Lenalidomide] |  |  | > 10 | > 10 |  | > 100 | > 10 | 1.87 | > 10 | > 10 | > 10 | > 100 | > 10 |  |
| C=CC[C@@H]1/C=C(\C)C[C@H](C)C[C@H](OC)[C@H]2O[C@@](O)(C(=O)C(=O)N3CCCC[C@H]3C(=O)O[C@H](/C(C)=C/[C@@H]3CC[C@@H](O)[C@H](OC)C3)[C@H](C)[C@@H](O)CC1=O)[C@H](C)C[C@@H]2OC [Tacrolimus] | > 10 |  | > 10 | > 10 | > 10 | > 10 |  | > 10 | > 10 | > 10 | > 10 | > 10 | > 10 | > 10 |
| CNC(=O)c1cc(Oc2ccc(NC(=O)Nc3ccc(Cl)c(C(F)(F)F)c3)c(F)c2)ccn1 [Regorafenib] | 2.05 | 2.77 | 1.69 | 1.7 | 3.57 | 3.58 | 1.34 | > 10 | > 10 | > 10 |  | > 10 | 3.16 | 1.7 |
| C[C@]12C=CC(=O)C=C1CC[C@@H]1[C@@H]2C(=O)C[C@@]2(C)[C@H]1CC[C@]2(O)C(=O)CO [Prednisone] | > 10 | > 10 | > 10 | > 10 |  | > 10 | > 10 | > 10 | > 10 | > 10 | > 10 | > 10 | > 10 | > 10 |
| Sc1ncnc2nc[nH]c12 [Mercaptopurine] | > 10 | > 10 | 1.27 | 1.46 | 0.64 |  | 0.193 | > 10 | > 10 | > 10 |  | > 10 | > 10 |  |
| O=c1[nH]c(=O)n([C@H]2C[C@H](O)[C@@H](CO)O2)cc1F [Floxuridine] | 0.127 | 0.752 | 0.0379 | 0.0534 | 0.173 | 1.48 | 0.123 |  | > 10 | 3.23 | 0.253 | > 10 | 0.729 | 0.101 |
| CN[C@@H](C)C(=O)N[C@H]1CN(C(=O)CC(C)C)CC[C@H]2CC[C@@H](C(=O)NC(c3ccccc3)c3ccccc3)N2C1=O [AT-406] | > 10 | > 10 | 0.0972 | > 10 |  |  | > 10 | > 10 | 0.0583 | > 10 | 0.0199 | > 10 | > 10 | > 10 |
| CC[C@H](Nc1ncnc2[nH]cnc12)c1nc2cccc(F)c2c(=O)n1-c1ccccc1 [Idelalisib] | > 10 | > 10 | 1.54 | > 10 | > 10 | > 10 |  | 0.511 | > 10 | > 10 |  | > 10 | > 10 | 1.04 |
| CCCCC/C=C/C=C1/C(=O)C=C[C@@H]1C/C=C\CCCC(=O)O [15D-PGJ2] | > 0.8 | > 0.8 | > 0.8 | > 0.8 |  | > 3 | > 0.8 | > 0.8 | > 0.8 | > 0.8 | > 0.8 | > 3 | > 0.8 | > 3 |
| O=C(c1ccc(C(=O)N2CCC(N3CCCC3)CC2)c(Nc2ccccc2)c1)N1CCC(N2CCCC2)CC1 [UNC1215] | > 30 | > 30 | > 30 | > 30 |  |  |  | > 30 | > 30 | > 30 |  | > 30 | > 30 | > 30 |
| N[C@@H](Cc1ccc(N(CCCl)CCCl)cc1)C(=O)O [Melphalan aq] | > 12.5 |  | > 12.5 | > 12.5 |  |  | > 12.5 | > 12.5 | > 12.5 | > 12.5 | > 12.5 |  | > 12.5 |  |
